Assay results as given in patent US20240026268A1, “MICROFLUIDIC HANGING DROP CULTURE DEVICE FOR CULTURING CELL AGGREGATE” (CELLARTGEN INC., priority 2021, published 2024).

What was measured:
[1] = system: human iPSC-derived nonalcoholic steatohepatitis organoids; assay: ROS quantitative analysis by CM-H2DCFDA staining of NASH organoids in 100-well HD chip; format: cell-based; conditions: NASH+Eze versus NASH organoid
Method: To check the accumulation of reactive oxygen species (ROS) caused by oxidative stress in Normal, NASH and NASH+Eze human iPSC-derived liver organoids (HEMKS) fabricated in the high-throughput 100-well HD chip by the same culture method as described above, ROS activity and quantitative analysis between the groups was performed by CM-H2DCFDA staining, which is oxidative stress detection assay.
The high-throughput HD chip was designed and fabricated with the same dimensions as a commercially available conventional 384-well plate.

[2] = system: human iPSC-derived nonalcoholic steatohepatitis organoids; assay: Effective drug test on human iPSC-derived nonalcoholic steatohepatitis organoids (HEMKS) in 100-well HD chip: qPCR, immunostaining, BODIPY; format: cell-based; conditions: oleic acid 500 μM + ezetimibe 50 μM for 2 days
Method: Human iPSC-derived liver organoids (HEMKS) were fabricated in the high-throughput 100-well HD chip. Then, a normal group was cultured in a normal culture medium for 7 days, whereas a nonalcoholic steatohepatitis (NASH) group was normally cultured for 5 days and then further cultured for 2 days in the culture medium mixed with 500 μM oleic acid, a free fatty acid, to induce steatohepatitis. Ezetimibe (Eze), an effective drug for treatment of fatty liver, is a drug candidate group that serves as a cholesterol absorption inhibitor and is conventionally used to treat high blood cholesterol and lipid abnormalities. After 5 days of normal culture, oleic acid (500 μM) and ezetimibe (50 μM) were mixed in the culture medium, followed by additional culture for 2 days to test the drug for steatohepatitis. After a total of 7 days of culture, the degree of fat accumulation was compared and the maker expression and gene expression were compared between groups by immunostaining and quantitative PCR analysis. For more accurate steatohepatitis modeling and drug screening, liver organoids containing immune cells (Kupffer cells) and mesenchymal cells (hepatic stellate cells) constituting a liver tissue microenvironment were fabricated. To this end, human iPSC-derived liver organoids were fabricated at a ratio of iPSC hepatic cells (H): vascular endothelial cells (E): mesenchymal stem cells (M): iPSC-derived Kupffer cells (K): iPSC-derived hepatic stellate cells (S)=10:7:2:2:1 (HEMKS).

[3] = quantitative PCR, versus NASH group

O=C1[C@H](CC[C@H](O)c2ccc(F)cc2)[C@@H](c2ccc(O)cc2)N1c1ccc(F)cc1 [Eze, Ezetimibe]
oxidative stress caused by ROS ([1]; CM-H2DCFDA staining, imaging): decreased to a certain level or less
fluorescence intensity (ROS oxidative stress) ([1]; on-chip analysis with plate reader): decreased
expression level of ALB, a hepatic differentiation marker ([2]; immunostaining, versus NASH organoid): recovered to a certain level
fatty acid accumulation (BODIPY fluorescence signal labeling lipid) ([2]; versus NASH organoid): decreased
expression level of PLIN2, a fatty acid accumulation marker [2, 3]: decreased
expression level of SMA, liver fibrosis marker [2, 3]: decreased
expression level of TNF-α, an inflammation marker [2, 3]: decreased
expression level of VIM, liver fibrosis marker [2, 3]: decreased
